Test results taken from patent publication US9556201B2, “Bicyclic pyridines and analogs as sirtuin modulators” (GLAXOSMITHKLINE LLC, priority 2009, dated 2017).

Molecular target: T1, SIRT1 (Homo sapiens, UniProt Q96EB6)
T1 sequence (Q96EB6 1-747): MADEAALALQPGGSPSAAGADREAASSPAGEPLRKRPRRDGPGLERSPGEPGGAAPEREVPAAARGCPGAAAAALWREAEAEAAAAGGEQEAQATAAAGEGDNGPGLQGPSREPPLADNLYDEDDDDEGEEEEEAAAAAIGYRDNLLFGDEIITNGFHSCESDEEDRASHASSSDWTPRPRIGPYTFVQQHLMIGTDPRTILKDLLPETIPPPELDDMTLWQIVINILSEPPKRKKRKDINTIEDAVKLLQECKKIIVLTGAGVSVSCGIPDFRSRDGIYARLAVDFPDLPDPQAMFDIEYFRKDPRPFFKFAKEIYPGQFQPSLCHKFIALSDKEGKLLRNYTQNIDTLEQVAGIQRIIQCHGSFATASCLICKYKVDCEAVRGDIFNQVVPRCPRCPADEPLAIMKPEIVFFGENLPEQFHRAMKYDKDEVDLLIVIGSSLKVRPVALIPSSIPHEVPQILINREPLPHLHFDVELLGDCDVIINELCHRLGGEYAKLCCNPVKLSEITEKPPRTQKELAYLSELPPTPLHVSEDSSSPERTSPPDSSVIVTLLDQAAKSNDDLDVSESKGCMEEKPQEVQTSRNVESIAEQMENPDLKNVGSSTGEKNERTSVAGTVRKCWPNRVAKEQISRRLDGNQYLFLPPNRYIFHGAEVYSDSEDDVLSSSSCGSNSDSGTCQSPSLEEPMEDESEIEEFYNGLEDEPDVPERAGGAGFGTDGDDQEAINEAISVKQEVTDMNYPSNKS
Test: Mass spectrometry based assay to identify modulators of SIRT1 activity (deacetylation of p53-based acetylated peptide substrate)
Format: biochemical
Conditions: for Emax: 25 min, SIRT1 activation, read-out: % FOLD ACT. (percent maximum fold activation)
Method in brief: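 His-tagged human SIRT1 (10 nM, E. coli) incubated 25 min at 25 °C with […] p53-derived acetylated 5TMR peptide and 120 μM βNAD+ in pH 8 Tris-acetate buffer, then formic acid-stopped. Mass spectrometry quantifies acetylated vs deacetylated peptide; nicotinamide and DMSO controls.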

| EC1.5 (concentration giving 1.5-fold activation) | Emax | % FOLD ACT. (percent maximum fold activation) | SMILES |
| --- | --- | --- | --- |
| 1 to 25 µM | > 200% | – | O=C(Nc1ccncc1)N1CCCCc2ccc(-c3cccc(Cl)c3)nc21 [Compound 728, 2-(3-chlorophenyl)-N-(pyridin-4-yl)-7,8-dihydro-5H-pyrido[2,3-b]azepine-9(6H)-carboxamide] |
| 1 to 25 µM | > 200% | – | O=C1CCN(C(=O)Nc2ccccn2)c2nc(-c3cccc(C(F)(F)F)c3)ccc21 [Compound 729] |
| > 25 µM | ≤ 200% | – | Cc1cccc(NC(=O)N2CCCCc3ccc(-c4cccc(Cl)c4)nc32)n1 [Compound 733] |
| 1 to 25 µM | > 200% | – | O=C(Nc1ccncc1F)N1CCCCc2ccc(-c3cccc(Cl)c3)nc21 [Compound 734] |
| > 25 µM | ≤ 200% | – | O=C(Nc1ccc(F)cn1)N1CCCCc2ccc(-c3cccc(Cl)c3)nc21 [Compound 735] |
| 1 to 25 µM | > 200% | – | O=C1CCCN(C(=O)Nc2cccnc2)c2nc(-c3cccc(Cl)c3)ccc21 [Compound 747, 2-(3-chlorophenyl)-5-oxo-N-(pyridin-3-yl)-7,8-dihydro-5H-pyrido[2,3-b]azepine-9(6H)-carboxamide] |
| 1 to 25 µM | ≤ 200% | – | O=C(Nc1ccccn1)N1CCCCc2ccc(-c3cccc(Cl)c3)nc21 [Compound 754] |
| 1 to 25 µM | > 200% | – | O=C(Nc1ccncn1)N1CCCCc2ccc(-c3cccc(Cl)c3)nc21 [Compound 755] |
| 1 to 25 µM | > 200% | – | O=C1CCCN(C(=O)Nc2ccncc2)c2nc(-c3cccc(Cl)c3)ccc21 [Compound 756] |
| 1 to 25 µM | > 200% | – | CC1(C)CN(C(=O)Nc2ccccn2)c2nc(-c3cccc(F)c3)ccc2O1 [Compound 760] |
| 1 to 25 µM | > 200% | – | O=C(Nc1ccccn1)N1CCCOc2ccc(-c3cccc(Cl)c3)nc21 [Compound 761] |
| 1 to 25 µM | ≤ 200% | – | O=C(Nc1ccc(F)cn1)N1CCCOc2ccc(-c3cccc(Cl)c3)nc21 [Compound 762] |
| 1 to 25 µM | > 200% | – | Cc1ccnc(NC(=O)N2CCCOc3ccc(-c4cccc(Cl)c4)nc32)c1 [Compound 763] |
| > 25 µM | ≤ 200% | – | CCN1C(=O)CCN(C(=O)Nc2ccccn2)c2nc(-c3cccc(Cl)c3)ccc21 [Compound 765, 7-(3-chlorophenyl)-1-ethyl-2-oxo-N-(pyridin-2-yl)-3,4-dihydro-1H-pyrido[2,3-b][1,4]diazepine-5(2H)-carboxamide] |
| 1 to 25 µM | ≤ 200% | – | O=C1CCCN(C(=O)Nc2ccncc2F)c2nc(-c3cccc(Cl)c3)ccc21 [Compound 767] |
| < 1 µM | > 200% | – | O=C1CCCN(C(=O)Nc2ccccn2)c2nc(-c3cccc(Cl)c3)ccc21 [Compound 768] |
| 1 to 25 µM | > 200% | – | O=C(Nc1ccncc1F)N1CCCOc2ccc(-c3cccc(Cl)c3)nc21 [Compound 769] |
| > 25 µM | ≤ 200% | – | O=C(Nc1cccnc1)N1CCCC(F)(F)c2ccc(-c3cccc(Cl)c3)nc21 [Compound 771] |
| > 25 µM | ≤ 200% | – | CCN1C(=O)CCN(C(=O)Nc2ccncc2F)c2nc(-c3cccc(Cl)c3)ccc21 [Compound 774] |

The remaining lines, values behind:

| SMILES | EC1.5 (concentration giving 1.5-fold activation) | Emax | % FOLD ACT. (percent maximum fold activation) |
| --- | --- | --- | --- |
| O=C(Nc1ccncc1F)N1CCOc2ncc(-c3cccc(C(F)(F)F)c3)nc21 [Compound 724] | 1 to 25 µM | > 200% | – |
| Cc1cncc(NC(=O)N2CCOc3ncc(-c4cccc(C(F)(F)F)c4)nc32)c1 [Compound 725] | 1 to 25 µM | > 200% | – |
| Cc1cc(NC(=O)N2CCOc3ncc(-c4cccc(C(F)(F)F)c4)nc32)cc(C)n1 [Compound 726] | < 1 µM | > 200% | – |
| Cc1cc(NC(=O)N2CCOc3c(N(C)C)nc(-c4cccc(F)c4)nc32)cc(C)n1 [Compound 727] | < 1 µM | ≤ 200% | – |
| O=C1CCN(C(=O)Nc2ccc(F)cn2)c2nc(-c3cccc(C(F)(F)F)c3)ccc21 [Compound 730] | 1 to 25 µM | ≤ 200% | – |
| O=C(Nc1ccnc(OC[C@H](O)CO)n1)N1CCOc2ccc(-c3cccc(C(F)(F)F)c3)nc21 [Compound 731] | > 25 µM | ≤ 200% | – |
| O=C(Nc1ccnc(OC[C@@H](O)CO)n1)N1CCOc2ccc(-c3cccc(C(F)(F)F)c3)nc21 [Compound 732] | > 25 µM | ≤ 200% | – |
| CN(C)c1nc(-c2cccc(F)c2)nc2c1OCCN2C(=O)Nc1ccncc1 [Compound 736, 4-(dimethylamino)-2-(3-fluorophenyl)-N-(pyridin-4-yl)-6H-pyrimido[5,4-b][1,4]oxazine-8(7H)-carboxamide] | > 25 µM | ≤ 200% | – |
| O=C(Nc1ccncc1)N1CCOc2c(N3CCCC3)nc(-c3cccc(F)c3)nc21 [Compound 737] | > 25 µM | ≤ 200% | – |
| O=C(Nc1ccncc1)N1CCOc2c(N3CCNCC3)nc(-c3cccc(F)c3)nc21 [Compound 738, 2-(3-fluorophenyl)-4-(piperazin-1-yl)-N-(pyridin-4-yl)-6H-pyrimido[5,4-b][1,4]oxazine-8(7H)-carboxamide] | > 25 µM | ≤ 200% | – |
| Cc1cc(NC(=O)N2CCOc3c(N4CCOCC4)nc(-c4cccc(F)c4)nc32)cc(C)n1 [Compound 739] | 1 to 25 µM | ≤ 200% | – |
| Cc1csc(NC(=O)N2CCOc3ncc(-c4cccc(C(F)(F)F)c4)nc32)n1 [Compound 740, N-(4-methylthiazol-2-yl)-6-(3-(trifluoromethyl)phenyl)-2H-pyrazino[2,3-b][1,4]oxazine-4(3H)-carboxamide] | > 25 µM | ≤ 200% | – |
| Cc1cc(C)nc(NC(=O)N2CCOc3ncc(-c4cccc(C(F)(F)F)c4)nc32)c1 [Compound 741] | 1 to 25 µM | > 200% | – |
| O=C(Nc1cccc(OCC(O)CO)n1)N1CCOc2ncc(-c3cccc(C(F)(F)F)c3)nc21 (centres unmarked) [Compound 742] | < 1 µM | > 200% | – |
| O=C(Nc1ccncc1)N1CCC(F)(F)c2ccc(-c3cccc(C(F)(F)F)c3)nc21 [Compound 743, 4,4-difluoro-N-(pyridin-4-yl)-7-(3-(trifluoromethyl)phenyl)-3,4-dihydro-1,8-naphthyridine-1(2H)-carboxamide] | 1 to 25 µM | > 200% | – |
| Cc1cnccc1NC(=O)N1CCC(F)(F)c2ccc(-c3cccc(C(F)(F)F)c3)nc21 [Compound 744] | > 25 µM | ≤ 200% | – |
| O=C(Nc1ccncc1F)N1CCC(F)(F)c2ccc(-c3cccc(C(F)(F)F)c3)nc21 [Compound 746] | 1 to 25 µM | ≤ 200% | – |
| O=C(Nc1ccnc(N2CCC2)c1)N1CCOc2ncc(-c3cccc(C(F)(F)F)c3)nc21 [Compound 748] | < 1 µM | > 200% | – |
| O=C(Nc1ccncc1)N1CCOc2c(N3CCNCC3)nc(-c3cccc(F)c3)nc21 [Compound 751] | 1 to 25 µM | – | B (Fold Activation≦200%) |
| Cc1cc(NC(=O)N2CCOc3c(N4CCNCC4)nc(-c4cccc(F)c4)nc32)cc(C)n1 [Compound 752] | 1 to 25 µM | > 200% | – |
| O=C(Nc1cncnc1)N1CCC(F)(F)c2ccc(-c3cccc(C(F)(F)F)c3)nc21 [Compound 753] | 1 to 25 µM | > 200% | – |
| CN(C)c1nc(-c2cccc(F)c2)nc2c1OCCN2C(=O)Nc1ccncn1 [Compound 757] | > 25 µM | ≤ 200% | – |
| O=C(Nc1ccncn1)N1CCOc2c(N3CCOCC3)nc(-c3cccc(F)c3)nc21 [Compound 758] | > 25 µM | ≤ 200% | – |
| O=C(Nc1ccncn1)N1CCOc2c(N3CCNCC3)nc(-c3cccc(F)c3)nc21 [Compound 759] | 1 to 25 µM | > 200% | – |
| O=C(Nc1ccncc1)N1CCCC(F)(F)c2ccc(-c3cccc(Cl)c3)nc21 [Compound 770] | > 25 µM | ≤ 200% | – |
| Cc1cc(NC(=O)N2CCCC(F)(F)c3ccc(-c4cccc(Cl)c4)nc32)cc(C)n1 [Compound 772] | 1 to 25 µM | > 200% | – |
| Cc1cc(NC(=O)N2CCCC(F)(F)c3ccc(-c4cccc(Cl)c4)nc32)ccn1 [Compound 773] | 1 to 25 µM | > 200% | – |
